# Results as given in patent publication US20130190370A1, “Novel Tetrahydronaphalene Antagonists to the Thromboxane A2 (TP) Receptor” (The Trustees of the University of Pennsylvania, priority 2010, published 2013).
# Experiments:
# [1] = system: Tg2576 mice; conditions: cited from earlier work
# [2] = in vivo; conditions: female, B6C3HF1, mouse, in vivo, ip, 5 mg/kg
# Protocol: One-month old B6C3HF1 female mice were given intraperitoneal injections of compounds at 5 mg/kg. 1 hour after injection, mice were lethally anesthetized with an intraperitoneal injection of ketamine hydrochloride (1 mg/10 g) and xylazine (0.1 mg/10 g) and perfused intracardially with PBS in accordance with protocols approved by the University of Pennsylvania.
# Brain samples were homogenized in 10 mM ammonium acetate, pH 5.7 (1:2; w/v) using a handheld sonic homogenizer. Compound from 50 μL of brain homogenate or plasma was extracted with 200 μL acetonitrile, centrifuged, and the supernatant removed for LC/MS/MS analysis. Compounds were detected using multiple reaction monitoring (MRM) of their specific collision-induced ion transitions and quantified using peak areas.
# The LC/MS/MS system was comprised of an Agility UPLC, a TQ MS, and controlled using MassLynx software (Waters Corporation, Milford, Mass., USA). Samples were separated on an Aquity BEH C18 column (1.7 μm, 2.1×50 mm) at 35° C. For operation in positive electrospray ionization mode, the mobile phase A was 0.1% (v/v) formic acid, and B was either acetonitrile or methanol with 0.1% (v/v) formic acid. For operation in negative electrospray ionization mode, the mobile phase A was 10 mM ammonium acetate, and B was methanol with 10 mM ammonium acetate, Injections of 5 μL were separated at a flow rate of 0.6 mL/min using a gradient from 5% to 95% B over two minutes followed by wash and re-equilibration steps.
# The MS was operated with a desolvation temperature of 450° C. and a source temperature of 150° C. Desolvation and source nitrogen gas flows were 900 L/hr and 50 L/hr, respectively. Collision cell argon gas flow was 0.1 mL/min. Source and analyzer voltages were optimized for each compound using the MassLynx auto tune utility. Compound standards at 1000 ng/mL in 50% acetonitrile were infused at 30 μL/min and combined with flow from the UPLC at 0.6 mL/min and 50% B.
# Standard curves were generated from spiked brain homogenate and plasma prepared at 4, 40, 400 and 4000 ng/mL and extracted as above. Peak area was plotted versus concentration and a 1/x weighted linear regression curve was used to quantify the unknowns using the average peak area from triplicate injections,
# The following experiments were designed to analyze TP receptor antagonists to determine their relative BBB penetration. The TP receptor antagonists were administered via i.p. injection at 5 mg/kg to normal mice, and brain and plasma compound concentrations were assessed by LC-MS/MS at 1 and 4 hours after dosing.
# To examine the blood-brain barrier permeability of these compounds, one-month old B6C3F1 mice were injected at 5 mg/kg and sacrificed 1 hour after injection.
# [3] = molecular target: T1, mouse TP receptor (Mus musculus, UniProt P30987); test: Radioligand binding assay (3H-SQ29,548), mouse TP receptor; conditions: read-out: Kd / affinity at the mouse TP receptor
# T1 construct: expressed in transfected cells
# T1 sequence (P30987 1-341): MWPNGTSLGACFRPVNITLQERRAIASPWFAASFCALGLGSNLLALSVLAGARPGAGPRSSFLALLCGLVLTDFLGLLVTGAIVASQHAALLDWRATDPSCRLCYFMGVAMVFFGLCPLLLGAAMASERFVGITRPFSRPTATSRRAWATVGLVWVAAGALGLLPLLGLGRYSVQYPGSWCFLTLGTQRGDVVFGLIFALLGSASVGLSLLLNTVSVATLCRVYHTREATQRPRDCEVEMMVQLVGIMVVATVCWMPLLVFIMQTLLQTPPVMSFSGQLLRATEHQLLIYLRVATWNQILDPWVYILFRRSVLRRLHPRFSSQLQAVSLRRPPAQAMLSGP
# Protocol: QBI-HEK 293A cells expressing human or mouse TxA2 (TP) receptor were grown as described previously and harvested in phosphate-buffered saline with 1 mM EDTA. The cell pellet was homogenized in a glass homogenizer in 20 mM Hepes, 1 mM EGTA, 0.5 mM DTT with protease inhibitor cocktail. The homogenate was initially centrifuged at 1000×g for 10 minutes at 8° C. to remove cell debris. The homogenate was then centrifuged in a Beckman L8-70M ultracentrifuge (Beckman-Coulter, Brea, Calif., USA) at 21,000 rpm for 30 minutes at 4° C., and the pellet was resuspended in 20 mM Hepes, 1 mM EGTA, 100 mM NaCl. Membrane preparations were normalized to protein level as determined with a BCA assay (ThermoFisher, Rockland, Ill.) and stored at −80° C.
# Test antagonists were incubated at 10 different concentrations with 25 μg membrane and 25 nM ^3H-SQ29,548 (PerkinElmer, Waltham, Mass., USA) in 50 mM Tris, 4 mM CaCl2, 0.1% ascorbic acid pH 7.5 for 2 hours at 25° C. in 96-well polystyrene plates. Separation of bound from free radioligand was accomplished by rapid vacuum filtration onto 96-well GF/B filter plates (PerkinElmer, Waltham, Mass., USA). Filters were washed 8 times in 50 mM Tris, pH 6.9 and allowed to dry for 16 hours, Plates were sealed and filters dissolved in 50 μL Betaplate Scintillation fluid (PerkinElmer, Waltham, Mass., USA) and read on a scintillation counter. Data are presented as percent total binding as calculated by a minimum of 3 wells containing membrane and ^3H-SQ29,548 without antagonist.
# Equilibrium dissociation constants (Kd), IC50, and Schild regression analyses was performed with GraphPad Prism software (GraphPad Software Inc., La Jolla, Calif., USA).
# To facilitate the characterization of the new compounds, cell-based TP receptor functional assays were optimized. HEK293 clones have been produced that stably express the human (hTP) or mouse (mTP) TP receptor (a isoform), and treatment of these clones with I-BOP ([1S-[1α,2α(Z),3β(1E,3S*),4α]]-7-[3-[3-hydroxy-4-(4-iodophenoxy)-1-butenyl]-7-oxabicyclo[2.2.1]hept-2-yl]-5-heptenoic acid) results in increased production of inositol triphosphate (IP3) (Knezevic, et al., 1993, Blood 82:A156; Shenker, et al., 1991, J Biol Chem 266:9309-9313; Huang, et al., 2004, Cell Signal 16:521-533) which can be quantified by measuring the breakdown product, inositol monophosphates (IP1), using a commercial time-resolved fluorescence assay. […] A radioligand binding assay was also developed to allow for the determination of binding affinities of compounds at the hTP and mTP receptors.
# [4] = B/Pfree (unbound drug brain-to-plasma ratio)
smiles,measurement,setting,value
Cc1ccc2c(c1CCC(=O)O)CC[C@@H](NS(=O)(=O)c1ccc(Cl)cc1)C2 [Compound S18886],Aβ levels,"[1]; Tg2576 mice, drinking water",reduced Aβ levels
same,plaque load,"[1]; long-term treatment, relative to untreated mice",significant diminution of plaque load
same,Kp at 1 h,[2]; B/P (brain-to-plasma ratio),0.02
same,Kp at 4 h,[2]; B/P (brain-to-plasma ratio),0.05
same,Kp at 1 h,[2]; [4],0.04
same,Kp at 4 h,[2]; [4],0.08
same,concentration at 1 h,[2]; Brain,42.4 ng/mL
same,concentration at 4 h,[2]; Brain,9 ng/mL
same,concentration at 1 h,[2]; Plasma,1710 ng/mL
same,concentration at 4 h,[2]; Plasma,190 ng/mL
same,Kd,[3],0.36 nM
